Measurements from PMC5940250 (The Journal of General Physiology, 2018).
Structures can show the parent of a compound that is named as a salt.

What was measured:
Test in all cases: two-electrode voltage clamp, oocytes, G
Type in all cases: cell-based
[1] = biological target: Shaker KV channel (Shaker H4, Δ6-46; "WT Shaker KV channel") (Drosophila melanogaster, UniProt P08510, DEL6-46/R362Q)
[2] = biological target: Shaker KV channel (Shaker H4, Δ6-46; "WT Shaker KV channel") (Drosophila melanogaster, UniProt P08510, DEL6-46/L358R/R362Q)
[3] = biological target: T1, human M channel (hKV7.2/7.3) (Homo sapiens, UniProt O43525+O43526)
T1 sequence (O43526 whole entry): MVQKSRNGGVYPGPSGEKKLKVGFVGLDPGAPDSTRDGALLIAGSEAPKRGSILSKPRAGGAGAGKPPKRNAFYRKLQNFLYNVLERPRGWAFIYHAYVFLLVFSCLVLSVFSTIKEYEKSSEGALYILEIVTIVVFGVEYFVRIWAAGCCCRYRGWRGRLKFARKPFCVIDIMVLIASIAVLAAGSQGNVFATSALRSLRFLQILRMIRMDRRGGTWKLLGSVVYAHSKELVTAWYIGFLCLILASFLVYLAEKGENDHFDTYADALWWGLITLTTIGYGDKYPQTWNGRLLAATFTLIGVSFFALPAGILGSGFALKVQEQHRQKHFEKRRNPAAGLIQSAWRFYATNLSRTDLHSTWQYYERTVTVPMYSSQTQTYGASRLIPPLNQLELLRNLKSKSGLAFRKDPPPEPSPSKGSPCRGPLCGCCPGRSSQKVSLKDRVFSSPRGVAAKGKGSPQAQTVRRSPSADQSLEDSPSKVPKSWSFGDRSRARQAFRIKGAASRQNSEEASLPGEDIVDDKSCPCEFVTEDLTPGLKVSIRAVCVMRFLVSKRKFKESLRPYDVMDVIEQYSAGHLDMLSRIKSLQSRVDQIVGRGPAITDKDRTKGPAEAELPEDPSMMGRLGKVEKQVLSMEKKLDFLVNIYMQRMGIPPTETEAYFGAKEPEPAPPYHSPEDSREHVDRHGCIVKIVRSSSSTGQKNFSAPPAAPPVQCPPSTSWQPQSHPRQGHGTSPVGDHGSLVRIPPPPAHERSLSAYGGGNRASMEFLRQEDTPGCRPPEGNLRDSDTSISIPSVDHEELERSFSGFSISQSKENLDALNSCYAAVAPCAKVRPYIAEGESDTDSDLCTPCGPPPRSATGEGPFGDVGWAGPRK
T1 sequence (O43525 whole entry): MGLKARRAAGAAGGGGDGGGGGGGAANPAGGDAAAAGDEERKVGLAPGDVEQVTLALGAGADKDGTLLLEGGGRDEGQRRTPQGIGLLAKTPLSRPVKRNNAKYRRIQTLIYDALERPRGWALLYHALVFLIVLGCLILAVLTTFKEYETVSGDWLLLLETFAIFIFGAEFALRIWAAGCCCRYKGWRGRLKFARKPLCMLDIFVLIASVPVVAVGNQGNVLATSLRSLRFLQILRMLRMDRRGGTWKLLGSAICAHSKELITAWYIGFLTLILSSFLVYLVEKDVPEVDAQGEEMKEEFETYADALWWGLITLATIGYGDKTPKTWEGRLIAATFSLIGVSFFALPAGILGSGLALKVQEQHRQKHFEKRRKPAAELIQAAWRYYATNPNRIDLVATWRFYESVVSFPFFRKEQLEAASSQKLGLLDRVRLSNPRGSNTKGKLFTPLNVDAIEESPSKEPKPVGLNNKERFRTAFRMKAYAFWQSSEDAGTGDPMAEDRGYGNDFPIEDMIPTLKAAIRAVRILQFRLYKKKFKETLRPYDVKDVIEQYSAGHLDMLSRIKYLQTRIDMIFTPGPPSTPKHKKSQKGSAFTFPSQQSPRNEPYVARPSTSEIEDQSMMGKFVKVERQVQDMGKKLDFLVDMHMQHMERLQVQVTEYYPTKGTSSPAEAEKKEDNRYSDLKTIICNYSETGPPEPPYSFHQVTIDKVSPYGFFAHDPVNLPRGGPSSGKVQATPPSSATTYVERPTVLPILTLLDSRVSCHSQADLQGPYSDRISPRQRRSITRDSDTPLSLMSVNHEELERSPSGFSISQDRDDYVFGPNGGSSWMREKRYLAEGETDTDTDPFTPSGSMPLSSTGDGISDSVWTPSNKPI

[4] = biological target: T1, human M channel (hKV7.2/7.3); details: 100 µM; pH 7.4, room temperature; not significant

For CC(C)c1ccc2c(c1)CC[C@H]1[C@](C)(COS(=O)(=O)O)CCC[C@]21C [Wu161, ((1R,4aS,10aR)-7-isopropyl-1,4a-dimethyl-1,2,3,4,4a,9,10,10a-octahydrophenanthren-1-yl)methyl hydrogen sulfate], which EC50 [1] is on record?
The EC50 was 36 µM.

What about the EC50 [2] of the same molecule?
Its EC50 is 70 µM.

What about the EC50 [3] of the same molecule?
The EC50 was 62 ± 15 µM.

For CC(C)c1ccc2c(c1)CC[C@H]1[C@](C)(CNS(C)(=O)=O)CCC[C@]21C [Wu110, N-(((1R,4aS,10aR)-7-isopropyl-1,4a-dimethyl-1,2,3,4,4a,9,10,10a-octahydrophenanthren-1-yl)methyl)methanesulfonamide], which “ΔV ± SEM” value [4] is on record?
The value was “–1.5 ± 0.4 mV”.

How did the EC50 [3] turn out when C[C@@]1(COS(=O)(=O)O)CCC[C@]2(C)c3cc(Cl)c(Cl)c(Cl)c3CC[C@@H]12 [Wu181, ((1R,4aS,10aR)-6,7,8-trichloro-1,4a-dimethyl-2,3,4,9,10,10a-hexahydrophenanthrene-1-yl)methyl hydrogen sulfate] was run?
Its EC50 is 12 ± 3 µM.
